Results reported in patent publication US20260258088A1, “DISC1-BINDING PEPTIDES AND THE USE THEREOF FOR THE TREATMENT AND DIAGNOSIS OF SCHIZOPHRENIA AND OTHER CHRONIC MENTAL DISORDERS” (FORSCHUNGSZENTRUM JUELICH GMBH, priority 2022, published 2026).
Residue numbers refer to the chain shown, from its start. Ends that are not written are not given here.

How the values were obtained:
Conditions in all cases: peptide immobilized, protein 2 μM, 25° C., TBS pH 7.4, KD = Koff/Kon
[1] = target: T1, wild-type (WT) human DISC1 C-region (residues 691-836) (Homo sapiens, UniProt Q9NRI5); assay: Bio-layer interferometry (BLI) binding of immobilized peptides to WT C-region
T1 construct: human DISC1 C-region (residues 691-836); His6 (N); made in house; host or cells: E. coli BL21 (DE3) pLysE T1R
T1 sequence (Q9NRI5 691-836): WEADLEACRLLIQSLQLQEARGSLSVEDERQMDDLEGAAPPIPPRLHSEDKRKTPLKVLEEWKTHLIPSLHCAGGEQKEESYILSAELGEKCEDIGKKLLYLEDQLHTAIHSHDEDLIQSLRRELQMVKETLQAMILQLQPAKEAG
Description: Protein expression and purification. The wild-type (WT) human DISC1 C-region (residues 691-836) was expressed alternatively as N-terminal His6—fusion construct, which was expressed as previously described using the E. coli BL21 (DE3) pLysE T1R cells. The culture was grown either in Luria-Bertani (LB) broth and protein expression was induced at an OD600 of 0.6 by the addition of 1 mM isopropyl-β-D-thiogalactopyranoside (IPTG) for 16 h at 18° C. Harvested cells were lysed using an ice-chilled microfluidizer M100P (Microfluidics MPT) at 15, 000 PSI in Tris-buffered saline (TBS) buffer containing 10 mM Tris-HCl pH 7.4, 150 mM NaCl and Complete EDTA-free protease inhibitor cocktail (Roche). The soluble fraction was purified on Co^2+-NTA resin (Qiagen) and was eluted using TBS containing 500 mM imidazole. In the next step, the WT C-region protein was further purified on a HiLoad 16/60 Superdex 200 size exclusion chromatography column (GE Healthcare Bio Sciences).
(§1) Bio-layer interferometry (BLI) for identification of peptide leads. Binding of the peptides with the C-region constructs (WT, S713E, S704C and L807-FS) were investigated using an Octet (ForteBio) instrument. Prior to measurements, all peptides were solubilized in phosphate buffered saline (PBS) containing 20 mM Na-phosphate, pH 7.4, and 150 mM NaCl. For coupling of the peptide (ligand), the A2RG sensor chip (Sartorius GmbH) were activated with 1-ethyl-3-(3-dimethylaminopropyl) carbodiimide (EDC)/N hydroxysuccinimide (NHS) (200 mM/50 mM); the peptides were diluted to 2 μM in 10 mM sodium acetate, pH 4.0, and immobilized to the sensor chip, and the flow cell was deactivated with 0.1 M ethanolamine-HCl, pH 8.5. Titrations of the above-mentioned C-region and the constructs were performed at 25° C. with TBS, pH 7.4 as the running buffer using protein concentrations of 2 μM without intermittent regeneration.
Data analysis of peptide-protein interaction. In order to assess the binding isotherms of the protein to the immobilized peptides, I derived the binding affinity (KD) by computing the on-rate (Kon) and the off-rate (Koff) by deriving the reciprocals of the exponential fittings of association and dissociation (OriginPro 2020).
The binding affinity (KD) was derived by dividing the off-rate (Koff) with the on-rate (Kon).

[2] = target: T2, DISC1 C-region (residues 691-836) mutant S713E (Homo sapiens, UniProt Q9NRI5, S713E); assay: Bio-layer interferometry (BLI) binding of immobilized peptides to S713E C-region
T2 construct: DISC1 C-region (residues 691-836) mutant versions S704C, and/or 713E and/or L807-FS
T2 sequence (Q9NRI5 691-836 S713E): T1 sequence (Q9NRI5 691-836) with S23E
Description: as §1, with “regeneration. Data analysis of peptide-protein interaction. In order to assess the binding isotherms of the protein to the immobilized peptides, I derived the binding affinity (KD) by computing the on-rate (Kon) and the off-rate (Koff) by deriving the reciprocals of the exponential fittings of association and dissociation (OriginPro 2020). The binding affinity (KD) was derived by dividing the off-rate (Koff) with the on-rate (Kon).” for “regeneration.”

[3] = target: T3, DISC1 C-region (residues 691-836) mutant S704C (Homo sapiens, UniProt Q9NRI5, S704C); assay: Bio-layer interferometry (BLI) binding of immobilized peptides to S704C C-region
T3 construct: DISC1 C-region (residues 691-836) mutant versions S704C, and/or 713E and/or L807-FS
T3 sequence (Q9NRI5 691-836 S704C): T1 sequence (Q9NRI5 691-836) with S14C
Description: as §1, with “regeneration. Data analysis of peptide-protein interaction. In order to assess the binding isotherms of the protein to the immobilized peptides, I derived the binding affinity (KD) by computing the on-rate (Kon) and the off-rate (Koff) by deriving the reciprocals of the exponential fittings of association and dissociation (OriginPro 2020). The binding affinity (KD) was derived by dividing the off-rate (Koff) with the on-rate (Kon).” for “regeneration.”

[4] = target: DISC1 C-region (residues 691-836) mutant L807-FS; assay: Bio-layer interferometry (BLI) binding of immobilized peptides to L807-FS C-region; design: species or system human
Description: as §1, with “regeneration. Data analysis of peptide-protein interaction. In order to assess the binding isotherms of the protein to the immobilized peptides, I derived the binding affinity (KD) by computing the on-rate (Kon) and the off-rate (Koff) by deriving the reciprocals of the exponential fittings of association and dissociation (OriginPro 2020). The binding affinity (KD) was derived by dividing the off-rate (Koff) with the on-rate (Kon).” for “regeneration.”

Row | Kd [1] | Kd [2] | Kd [3] | Kd [4] | Substance
1 | 640 nM | 220 nM | 150 nM | 110 nM | AWQHHELKWKQYQGWR-NH2 [Flm2, AWQHHELKWKQYQGWR-NH2]
2 | 2620 nM | 420 nM | 270 nM | 400 nM | HISMQTYKWSQWAKHQ-NH2 [Flo3, HISMQTYKWSQWAKHQ-NH2]
3 | 250 nM | 210 nM | 360 nM | 270 nM | QDNPWWHEHKHWKSWP-NH2 [Flo5, QDNPWWHEHKHWKSWP-NH2]
4 | 3680 nM | 890 nM | 1060 nM | 160 nM | TSGVPWWKFQQQVRRT-NH2 [Flo11, TSGVPWWKFQQQVRRT-NH2]
5 | 2010 nM | 1070 nM | 2240 nM | 530 nM | WNHPMNIRSISWHKDS-NH2 [Flm6, WNHPMNIRSISWHKDS-NH2]
6 | 100 nM | 70 nM | 160 nM | 40 nM | FPHPTLKHREFMRHVS-NH2 [Flo1, FPHPTLKHREFMRHVS-NH2]
7 | 2620 nM | 460 nM | 1040 nM | 170 nM | KYTAIHEWYKAHNGGA-NH2 [Flo8, KYTAIHEWYKAHNGGA-NH2]
8 | 3200 nM | 1500 nM | 1490 nM | 390 nM | PWYNAPHSHGFWGSGR-NH2 [Flm9, PWYNAPHSHGFWGSGR-NH2]
9 | 150 nM | 80 nM | 80 nM | 200 nM | IWAGHIHDWWRRGQGS-NH2 [Flm1, IWAGHIHDWWRRGQGS-NH2]
10 | 2360 nM | 460 nM | 720 nM | 170 nM | SNWHPRHFFMSPSSPQ-NH2 [Flo6, SNWHPRHFFMSPSSPQ-NH2]
11 | 640 nM | 80 nM | 150 nM | 110 nM | GIKSLISNKMHTQWNY-NH2 [Flm5, GIKSLISNKMHTQWNY-NH2]
12 | 1270 nM | 420 nM | 720 nM | 540 nM | HKLHHLLKWENQHKVE-NH2 [Flm11, HKLHHLLKWENQHKVE-NH2]
